Results published in PubChem BioAssay (NCI).
“And” between values parts separate entries of the source, which are not always exact repeats. Equal values may be shown once.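 These data come from cells grown in 96-well plates and exposed to compound for 48 hours at five concentrations. Here, GI50 denotes the concentration required for 50% inhibition of growth. TGI marks complete inhibition of growth.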 Where a SMILES comes first, the peptide text is derived from it. Bridges are numbered along the chain shown (N, C = ends). The star is where a group is joined. Cbz = O=C(OCc1ccccc1)*

Key:
Experiment in all cases: NCI anticancer screen, dose series, 48 h
A549 NSCLC = system: A549 NSCLC
IGROV1 ovarian = system: IGROV1 ovarian
KM12 colon = system: KM12 colon
OVCAR-3 ovarian = system: OVCAR-3 ovarian
OVCAR-4 ovarian = system: OVCAR-4 ovarian
OVCAR-5 ovarian = system: OVCAR-5 ovarian
OVCAR-8 ovarian = system: OVCAR-8 ovarian
SF-268 CNS = system: SF-268 CNS
SN12C renal = system: SN12C renal
SNB-19 CNS = system: SNB-19 CNS
UACC-62 melanoma = system: UACC-62 melanoma
UO-31 renal = system: UO-31 renal
BT-549 breast = system: BT-549 breast
HOP-92 NSCLC = system: HOP-92 NSCLC
MDA-MB-435 = system: MDA-MB-435
SK-OV-3 ovarian = system: SK-OV-3 ovarian
CAKI-1 renal = system: CAKI-1 renal
HS 578T breast = system: HS 578T breast

SMILES	TGI (A549 NSCLC) [µM]	TGI (IGROV1 ovarian) [µM]	TGI (KM12 colon) [µM]	TGI (OVCAR-3 ovarian) [µM]	TGI (OVCAR-4 ovarian) [µM]	TGI (OVCAR-5 ovarian) [µM]	TGI (OVCAR-8 ovarian) [µM]	TGI (SF-268 CNS) [µM]	TGI (SN12C renal) [µM]	TGI (SNB-19 CNS) [µM]	TGI (UACC-62 melanoma)	TGI (UO-31 renal) [µM]	TGI (BT-549 breast) [µM]	TGI (HOP-92 NSCLC) [µM]	TGI (MDA-MB-435)	TGI (SK-OV-3 ovarian) [µM]	TGI (CAKI-1 renal) [µM]	TGI (HS 578T breast) [µM]	GI50 (SN12C renal) [µM]	GI50 (UACC-62 melanoma) [µM]
CCN(CC)C(=O)CCn1ccc(=O)[nH]c1=O	> 100	> 100	> 100	> 100	> 100	> 100	> 100	> 100	> 100	> 100	> 100 µM	> 100	–	–	–	–	–	–	–	–
Clc1ccc(/C=C/c2nc(-c3ccccc3)cn3c2nc2ccccc23)cc1Cl	> 100	> 100	> 100	> 100	> 100	> 100	–	> 100	> 100	> 100	> 100 µM	> 100	> 100	> 100	> 100 µM	> 100	–	–	–	–
COCCN(C(=O)c1ccccc1)C1CCC2(SCCS2)c2[nH]c3ccccc3c21 (configuration not stated)	68.2	> 100	> 100	> 100	–	> 100	> 100	> 100	> 100	> 100	–	> 100	–	78	69.6 µM	–	> 100	> 100	–	–
COc1ccc(/C=C/C(=O)c2cc(OC)cc(OC)c2)cc1	6.96	25.7	2.23	15.1	18	18.1	18.3	16.4	13.5	7.3	16.9 µM	12.4	–	60.4	3.45 µM	27.5	12.9	15.1	–	–
CN(C)c1cccc(-c2cc(=S)c3cc4c(cc3[nH]2)OCO4)c1	> 100	> 100	> 100	> 100	> 100	> 100	> 100	> 100	> 100	> 100	> 100 µM	> 100	> 100	> 100	–	> 100	> 100	> 100	–	–
COc1cc2c(cc1OS(C)(=O)=O)N=C[C@@H]1CCCN1C2=O	> 100	> 100	> 100	> 100	> 100	–	> 100	> 100	> 100	> 100	> 100 µM	> 100	–	> 100	> 100 µM	> 100	> 100	> 100	–	–
CC(=O)OCC1OC(N2C(=O)[C@@H](Oc3ccccc3)[C@H]2/C=C/c2ccccc2)C(OC(C)=O)C(OC(C)=O)C1OC(C)=O (some centres not stated)	> 100	> 100	–	> 100	> 100	> 100	> 100	> 100	> 100	> 100	> 100 µM	> 100	–	> 100	–	> 100	–	–	–	–
COc1cc(CN=c2nc(N(C)C)ss2)cc(OC)c1OC	> 10	> 10	> 10	> 10	> 10	> 10	> 8.92	> 10	> 10	> 10	> 10 µM	> 10	–	> 10	> 10 µM	> 10	> 10	> 10	–	–
O=C(Cc1ccccc1)NN1C(=O)C(Cl)C1c1ccc(Cl)cc1 (configuration not stated)	> 100	> 100	> 100	> 100	> 100	> 100	> 100	> 100	> 100	> 100	> 100 µM	> 100	–	–	–	> 100	> 100	–	–	–
OCC(O)COCn1cc(Cn2ncc3c(SCc4ccccc4)ncnc32)nn1 (configuration not stated)	> 100	> 100	> 100	> 100	> 100	> 100	> 100	> 100	> 100	> 100	> 100 µM	> 100	> 100	> 100	> 100 µM	> 100	> 100	–	–	–
C=C=C[P+](c1ccccc1)(c1ccccc1)c1ccccc1	> 100	> 100	28.2	34.4	> 100	–	> 100	> 100	17.8	–	–	> 100	–	–	–	> 100	–	–	–	–
COC(=O)c1cc2ccc(O)c(O)c2cn1	63.1	33.2	32	30.8	21.7	35	28.6	30.8	17.3	–	6.16 µM and 30.9 µM	32.2	–	26.3	3.25 µM and 3.21 µM	92.3	25.7	–	5.22	14.2
CCC(C)N1CN(c2ccccc2)C2(CCN(CC3COc4ccccc4O3)CC2)C1=O (configuration not stated)	> 100	> 100	43.9	56.2	–	–	67.9	> 100	84.2	> 100	49.8 µM	30.2	31.6	–	49.7 µM	> 100	38.4	–	–	–
COc1ccc2c(O)c(Oc3ccc(Cl)cc3)c(=O)oc2c1	> 100	> 100	> 100	> 100	> 100	> 100	> 100	> 100	> 100	> 100	–	> 100	> 100	> 100	–	–	> 100	> 100	–	–
COC(=NC(C)C)NC(C)C	> 100	> 100	–	–	–	> 100	> 100	> 100	> 100	> 100	> 100 µM	> 100	–	> 100	> 100 µM	> 100	–	> 100	–	–
CNC(=O)C1CCCCNC(=O)CCC(NC(=O)OCc2ccccc2)C(=O)N1 (stereo not drawn) (Cbz-Glu-Lys-NHMe; lactam 1-2; configuration not given here)	> 100	> 100	> 100	> 100	> 100	> 100	> 100	> 100	> 100	> 100	> 100 µM	> 100	–	> 100	> 100 µM	> 100	> 100	> 100	–	–

SMILES	TGI (A549 NSCLC) [µM]	TGI (IGROV1 ovarian) [µM]	TGI (KM12 colon) [µM]	TGI (OVCAR-3 ovarian) [µM]	TGI (OVCAR-4 ovarian) [µM]	TGI (OVCAR-5 ovarian) [µM]	TGI (OVCAR-8 ovarian) [µM]	TGI (SF-268 CNS) [µM]	TGI (SN12C renal) [µM]	TGI (SNB-19 CNS) [µM]	TGI (UACC-62 melanoma)	TGI (UO-31 renal) [µM]	TGI (BT-549 breast) [µM]	TGI (HOP-92 NSCLC) [µM]	TGI (MDA-MB-435)	TGI (SK-OV-3 ovarian) [µM]	TGI (CAKI-1 renal) [µM]	TGI (HS 578T breast) [µM]	GI50 (SN12C renal) [µM]	GI50 (UACC-62 melanoma) [µM]
CC(C)[Si](OC12CCC(CC1O)CC2CO)(C(C)C)C(C)C (configuration not stated)	22.1	–	25.3	27.6	23.7	31.2	29.7	27.9	60.6	28.6	28.9 µM	26.8	–	29	31.7 µM	27.5	39.3	–	–	–
CC1(OCc2ccccc2)C(=O)N2C1NCC2(C)C (configuration not stated)	> 100	> 100	–	> 100	> 100	–	> 100	> 100	> 100	> 100	> 100 µM	> 100	–	–	–	–	–	–	–	–
O=C(c1ccc2ccccc2c1)C1(I)S(=O)(=O)OCCOS1(=O)=O	> 100	–	> 100	> 100	> 100	> 100	> 100	–	> 100	> 100	–	> 100	> 100	–	> 100 µM	–	> 100	–	–	–
O=C(O)CN1CCSc2ccccc2CN(CC(=O)O)CCSc2ccccc2C1	> 100	> 100	> 100	> 100	–	> 100	> 100	> 100	> 100	> 100	> 100 µM	> 100	–	> 100	–	> 100	> 100	–	–	–
CC(C)(C)C(=O)/C=C(\OB(F)F)C(C)(C)C	> 100	> 100	> 100	> 100	> 100	> 100	> 100	> 100	> 100	> 100	–	> 100	–	> 100	> 100 µM	> 100	> 100	> 100	–	–
N/N=c1/nc2n(c3ncccc13)C=CNN2	> 100	> 100	> 100	> 100	–	> 100	> 100	> 100	> 100	> 100	> 100 µM	–	–	> 100	–	> 100	> 100	–	–	–
CC(C)OC(=O)NCCn1cc(-c2ccccc2)nn1	> 100	–	> 100	–	> 100	> 100	> 100	> 100	> 100	> 100	–	–	> 100	> 100	> 100 µM	–	> 100	–	–	–
O=C(O)c1cc(CCc2ccc(O)c(O)c2)ccc1O	> 100	> 100	> 100	> 100	–	> 100	> 100	> 100	> 100	> 100	> 100 µM	> 100	> 100	–	> 100 µM	> 100	> 100	> 100	–	–
C=CCOC(=O)Cn1cnc2c(N)ncnc21	> 100	> 100	> 100	–	> 100	–	> 100	> 100	> 100	> 100	> 100 µM	> 100	–	–	> 100 µM	> 100	> 100	> 100	–	–
CN(C)CCNc1ccc(NCC[N+](C)(C)Cc2ccc([N+](=O)[O-])cc2)c2c1C(=O)c1c(O)ccc(O)c1C2=O	–	> 100	> 100	> 100	> 100	–	> 100	> 100	> 100	> 100	> 100 µM	–	40.9	–	> 100 µM	–	> 100	> 100	–	–
CN(Cc1cnc2nc(N)nc(N)c2n1)c1ccc(C(=O)NCCCS(=O)(=O)O)cc1	> 100	> 100	> 100	> 100	> 100	> 100	> 100	> 100	> 100	> 100	> 100 µM	> 100	> 100	–	> 100 µM	> 100	–	> 100	–	–
COC(=O)NC(=O)NC(Cc1ccccc1)NC(=O)OCc1ccccc1 (configuration not stated)	> 100	> 100	> 100	> 100	> 100	> 100	> 100	> 100	> 100	> 100	> 100 µM	> 100	> 100	42.5	> 100 µM	57.5	> 100	–	–	–
O=C(CC(NC(=O)OCc1ccccc1)C(=O)NC1Cc2ccccc2C1=O)OCc1ccccc1 (configuration not stated)	> 100	> 100	> 100	> 100	–	> 100	> 100	> 100	> 100	> 100	> 100 µM	> 100	> 100	–	> 100 µM	> 100	> 100	> 100	–	–
Cc1ccc(S(=O)(=O)NNC(=O)Nc2cccc(C(F)(F)F)c2)cc1	> 100	> 100	> 100	–	> 100	> 100	> 100	> 100	> 100	> 100	> 100 µM	> 100	–	> 100	> 100 µM	> 100	> 100	> 100	–	–
O=C1C(Cl)C(c2cccc([N+](=O)[O-])c2)N1n1cnc2ccccc2c1=O (configuration not stated)	> 100	> 100	> 100	> 100	> 100	> 100	> 100	> 100	> 100	> 100	> 100 µM	> 100	–	–	–	> 100	> 100	–	–	–
